Results from ChEMBL document CHEMBL4373693, “Virtual Screening Approach and Investigation of Structure-Activity Relationships To Discover Novel Bacterial Topoisomerase Inhibitors Targeting Gram-Positive and Gram-Negative Pathogens” (J Med Chem, 2019).
In brackets after ≈: the same amount, converted by molar mass.

How the values were obtained:
Escherichia coli [1] = test: Antibacterial activity against Escherichia coli ATCC 25922 after 16 to 24 hrs by broth microdilution method; assay type: functional
DNA gyrase subunit A [2] = biological target: DNA gyrase subunit A (Escherichia coli K-12, UniProt P0AES4); test: Inhibition of Escherichia coli ATCC 25922 DNA gyrase A assessed as reduction in enzyme-mediated supercoiling of relaxed pBR322 DNA by ethidium bromide staining based gel electrophoresis method
[3] = biological target: T1, DNA topoisomerase 4 subunit A (Escherichia coli K-12, UniProt P0AFI2); test: Inhibition of Escherichia coli ATCC 25922 DNA topoisomerase 4 subunit ParC assessed as reduction in decatenation of kinetoplast DNA incubated for 30 mins by ethidium bromide staining based gel electrophoresis method
T1 sequence (P0AFI2 whole entry): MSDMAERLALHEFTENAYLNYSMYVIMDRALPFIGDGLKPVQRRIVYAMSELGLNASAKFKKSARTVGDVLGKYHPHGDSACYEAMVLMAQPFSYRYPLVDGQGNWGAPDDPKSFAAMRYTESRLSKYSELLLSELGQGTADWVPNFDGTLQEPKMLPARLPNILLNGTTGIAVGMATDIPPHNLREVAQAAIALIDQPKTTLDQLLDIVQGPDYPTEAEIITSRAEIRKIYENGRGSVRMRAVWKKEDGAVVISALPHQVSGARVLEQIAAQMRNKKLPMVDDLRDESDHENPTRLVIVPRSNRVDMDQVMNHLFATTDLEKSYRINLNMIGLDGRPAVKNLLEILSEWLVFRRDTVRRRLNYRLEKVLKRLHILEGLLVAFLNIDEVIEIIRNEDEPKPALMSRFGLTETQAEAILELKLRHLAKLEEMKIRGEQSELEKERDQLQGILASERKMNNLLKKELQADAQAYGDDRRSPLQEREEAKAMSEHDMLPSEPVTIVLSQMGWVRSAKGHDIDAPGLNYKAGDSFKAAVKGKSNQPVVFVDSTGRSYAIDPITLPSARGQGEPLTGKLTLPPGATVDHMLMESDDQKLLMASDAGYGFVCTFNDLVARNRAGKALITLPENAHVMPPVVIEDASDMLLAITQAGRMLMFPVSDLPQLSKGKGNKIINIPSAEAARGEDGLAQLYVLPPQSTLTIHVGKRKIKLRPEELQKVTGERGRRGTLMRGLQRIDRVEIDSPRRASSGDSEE

[4] = biological target: DNA topoisomerase 4 subunit A (Staphylococcus aureus, UniProt P0C1U9); test: Inhibition of Staphylococcus aureus ATCC 29213 DNA topoisomerase 4 subunit ParC assessed as reduction in decatenation of kinetoplast DNA incubated for 30 mins by ethidium bromide staining based gel electrophoresis method
DNA gyrase subunit A [5] = biological target: DNA gyrase subunit A (Staphylococcus aureus, UniProt P20831); test: Inhibition of Staphylococcus aureus ATCC 29213 DNA gyrase A assessed as reduction in enzyme-mediated supercoiling of relaxed pBR322 DNA by ethidium bromide staining based gel electrophoresis method
Staphylococcus aureus [6] = test: Antibacterial activity against Staphylococcus aureus BAA-1720 after 16 to 24 hrs by broth microdilution method; assay type: functional
Pseudomonas aeruginosa = test: Antibacterial activity against Pseudomonas aeruginosa ATCC 27853 after 16 to 24 hrs by CLSI method; assay type: functional
Staphylococcus aureus [7] = test: Antibacterial activity against Staphylococcus aureus ATCC 29213 after 16 to 24 hrs by broth microdilution method; assay type: functional
Klebsiella pneumoniae = test: Antibacterial activity against quinolone-sensitive Klebsiella pneumoniae ATCC 700603 after 16 to 24 hrs by broth microdilution method; assay type: functional
Enterococcus faecium [8] = test: Antibacterial activity against vancomycin and teicoplanin-resistant Enterococcus faecium APV 00422 after 16 to 24 hrs by broth microdilution method; assay type: functional
Haemophilus influenzae [9] = test: Antibacterial activity against quinolone-sensitive Haemophilus influenzae ATCC 49766 after 16 to 24 hrs by broth microdilution method; assay type: functional
Enterococcus faecalis [10] = test: Antibacterial activity against vancomycin-sensitive Enterococcus faecalis APV 00623 after 16 to 24 hrs by broth microdilution method; assay type: functional
Enterococcus faecalis [11] = test: Antibacterial activity against vancomycin-sensitive Enterococcus faecalis APV 00406 after 16 to 24 hrs by broth microdilution method; assay type: functional
Enterococcus faecium [12] = test: Antibacterial activity against Enterococcus faecium APV 00626 after 16 to 24 hrs by broth microdilution method; assay type: functional
Enterococcus faecalis [13] = test: Antibacterial activity against Enterococcus faecalis ATCC 29212 after 16 to 24 hrs by broth microdilution method; assay type: functional
Enterococcus faecalis [14] = test: Antibacterial activity against vancomycin-sensitive Enterococcus faecalis APV 00404 after 16 to 24 hrs by broth microdilution method; assay type: functional
Enterococcus faecalis [15] = test: Antibacterial activity against vancomycin and teicoplanin-resistant Enterococcus faecalis APV 00408 after 16 to 24 hrs by broth microdilution method; assay type: functional
Enterococcus faecium [16] = test: Antibacterial activity against vancomycin resistant and teicoplanin sensitive Enterococcus faecium APV 00553 after 16 to 24 hrs by broth microdilution method; assay type: functional
Enterococcus faecalis [17] = test: Antibacterial activity against vancomycin and teicoplanin-resistant Enterococcus faecalis APV 00409 after 16 to 24 hrs by broth microdilution method; assay type: functional
Enterococcus faecium [18] = test: Antibacterial activity against vancomycin and teicoplanin-resistant Enterococcus faecium APV 00424 after 16 to 24 hrs by broth microdilution method; assay type: functional
Enterococcus faecium [19] = test: Antibacterial activity against Enterococcus faecium APV 00627 after 16 to 24 hrs by broth microdilution method; assay type: functional
Haemophilus influenzae [20] = test: Antibacterial activity against quinolone-sensitive Haemophilus influenzae H128 after 16 to 24 hrs by broth microdilution method; assay type: functional
Enterococcus faecium [21] = test: Antibacterial activity against vancomycin resistant and teicoplanin sensitive Enterococcus faecium APV 00420 after 16 to 24 hrs by broth microdilution method; assay type: functional
Staphylococcus aureus [22] = test: Antibacterial activity against Staphylococcus aureus; assay type: functional
Escherichia coli [23] = test: Antibacterial activity against Escherichia coli; assay type: functional
Neisseria gonorrhoeae = test: Antibacterial activity against Neisseria gonorrhoeae ATCC 19424 after 16 to 24 hrs by broth microdilution method; assay type: functional
Staphylococcus aureus [24] = test: Antibacterial activity against Staphylococcus aureus ATCC 29213 in presence of 50% human serum after 16 to 24 hrs by broth microdilution method; assay type: functional
Staphylococcus aureus [25] = test: Antibacterial activity against Staphylococcus aureus BAA-1720 in presence of 50% human serum after 16 to 24 hrs by broth microdilution method; assay type: functional

Chain of DNA topoisomerase 4 subunit A (Staphylococcus aureus, UniProt P0C1U9) (P0C1U9 whole entry): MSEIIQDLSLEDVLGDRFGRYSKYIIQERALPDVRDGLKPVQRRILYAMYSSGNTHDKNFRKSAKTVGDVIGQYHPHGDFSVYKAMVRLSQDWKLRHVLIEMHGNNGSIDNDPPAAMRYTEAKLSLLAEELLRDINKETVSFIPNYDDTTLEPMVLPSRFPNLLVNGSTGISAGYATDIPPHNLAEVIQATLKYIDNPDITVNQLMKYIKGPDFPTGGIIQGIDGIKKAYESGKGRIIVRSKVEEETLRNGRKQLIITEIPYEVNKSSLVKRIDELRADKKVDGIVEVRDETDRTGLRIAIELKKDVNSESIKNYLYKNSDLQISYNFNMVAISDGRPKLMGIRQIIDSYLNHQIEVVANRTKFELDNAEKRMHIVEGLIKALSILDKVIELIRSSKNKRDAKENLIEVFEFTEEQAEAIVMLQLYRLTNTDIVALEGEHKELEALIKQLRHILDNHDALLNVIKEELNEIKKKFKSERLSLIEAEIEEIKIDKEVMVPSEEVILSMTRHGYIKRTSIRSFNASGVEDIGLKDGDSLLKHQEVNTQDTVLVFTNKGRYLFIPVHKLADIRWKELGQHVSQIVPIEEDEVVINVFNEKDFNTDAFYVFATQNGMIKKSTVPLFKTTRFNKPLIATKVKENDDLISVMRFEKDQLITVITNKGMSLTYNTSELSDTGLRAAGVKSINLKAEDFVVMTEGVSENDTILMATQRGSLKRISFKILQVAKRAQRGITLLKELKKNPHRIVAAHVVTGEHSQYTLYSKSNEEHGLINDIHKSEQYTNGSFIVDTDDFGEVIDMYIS
Chain of DNA gyrase subunit A (Staphylococcus aureus, UniProt P20831) (P20831 whole entry): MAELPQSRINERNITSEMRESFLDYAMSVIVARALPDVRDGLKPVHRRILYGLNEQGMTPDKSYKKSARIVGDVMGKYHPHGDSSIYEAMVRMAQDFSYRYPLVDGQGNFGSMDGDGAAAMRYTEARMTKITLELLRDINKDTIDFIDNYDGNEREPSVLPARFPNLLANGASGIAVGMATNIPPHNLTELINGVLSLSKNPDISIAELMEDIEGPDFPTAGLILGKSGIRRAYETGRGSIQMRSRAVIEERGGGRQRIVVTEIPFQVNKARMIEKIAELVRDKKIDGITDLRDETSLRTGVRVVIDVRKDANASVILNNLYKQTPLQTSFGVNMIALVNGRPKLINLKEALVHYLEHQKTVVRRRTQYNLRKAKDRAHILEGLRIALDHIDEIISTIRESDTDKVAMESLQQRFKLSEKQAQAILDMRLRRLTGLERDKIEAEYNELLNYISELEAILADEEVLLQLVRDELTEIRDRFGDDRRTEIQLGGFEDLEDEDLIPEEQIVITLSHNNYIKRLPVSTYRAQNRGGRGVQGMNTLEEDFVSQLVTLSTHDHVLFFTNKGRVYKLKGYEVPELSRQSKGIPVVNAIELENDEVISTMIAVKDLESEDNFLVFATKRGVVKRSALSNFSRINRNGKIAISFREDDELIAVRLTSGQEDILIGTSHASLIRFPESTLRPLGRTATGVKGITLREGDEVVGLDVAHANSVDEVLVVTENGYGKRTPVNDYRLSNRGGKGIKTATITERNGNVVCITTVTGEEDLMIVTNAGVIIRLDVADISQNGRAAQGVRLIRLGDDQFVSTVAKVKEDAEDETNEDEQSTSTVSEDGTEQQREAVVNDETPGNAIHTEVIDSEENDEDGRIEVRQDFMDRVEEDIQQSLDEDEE
Chain of DNA gyrase subunit A (Escherichia coli K-12, UniProt P0AES4) (P0AES4 whole entry): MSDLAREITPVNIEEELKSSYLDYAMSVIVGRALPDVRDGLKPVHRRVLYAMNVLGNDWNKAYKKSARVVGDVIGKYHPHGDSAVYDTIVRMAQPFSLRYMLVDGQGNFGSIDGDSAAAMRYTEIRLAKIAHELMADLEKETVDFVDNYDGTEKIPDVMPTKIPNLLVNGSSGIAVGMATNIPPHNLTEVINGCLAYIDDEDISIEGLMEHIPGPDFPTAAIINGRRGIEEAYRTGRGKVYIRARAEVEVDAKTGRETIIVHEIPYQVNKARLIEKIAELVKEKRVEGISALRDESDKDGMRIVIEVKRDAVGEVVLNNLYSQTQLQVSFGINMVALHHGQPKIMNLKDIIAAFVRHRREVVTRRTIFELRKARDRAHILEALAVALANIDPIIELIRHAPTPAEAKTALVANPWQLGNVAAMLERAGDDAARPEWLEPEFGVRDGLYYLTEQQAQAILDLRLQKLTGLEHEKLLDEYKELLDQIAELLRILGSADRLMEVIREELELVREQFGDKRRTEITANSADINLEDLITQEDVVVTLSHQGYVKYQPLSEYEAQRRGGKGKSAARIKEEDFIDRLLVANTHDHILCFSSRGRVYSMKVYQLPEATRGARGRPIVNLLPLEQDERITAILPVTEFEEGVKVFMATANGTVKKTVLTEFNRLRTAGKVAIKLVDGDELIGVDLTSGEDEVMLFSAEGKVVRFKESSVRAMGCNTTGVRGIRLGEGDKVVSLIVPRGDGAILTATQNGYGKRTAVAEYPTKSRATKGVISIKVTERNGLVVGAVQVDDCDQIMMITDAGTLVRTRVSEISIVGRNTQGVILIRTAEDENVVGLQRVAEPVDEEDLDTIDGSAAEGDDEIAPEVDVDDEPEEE

Row | Compound | MIC (Escherichia coli [1]) [µg/mL] | IC50 (DNA gyrase subunit A [2]) [nM] | IC50 [3] [nM] | IC50 [4] [µM] | IC50 (DNA gyrase subunit A [5]) [nM] | MIC (Staphylococcus aureus [6]) [µg/mL] | MIC (Pseudomonas aeruginosa) [µg/mL] | MIC (Staphylococcus aureus [7]) [µg/mL] | also measured
1 | O=c1cc(NCCCN2CCN(c3nccc4ccccc34)CC2)c2cc(Cl)ccc2o1 | 0.5 (≈ 1.11 µM) | 600 | 1200 | 5.5 | 5200 | 4 (≈ 8.91 µM) | 4 (≈ 8.91 µM) | 8 (≈ 17.8 µM) | 
2 | O=c1cc(NC[C@@H](O)CN2CCN(c3nccc4ccc(F)cc34)CC2)c2ccccc2o1 | 2 (≈ 4.46 µM) | 1100 | 1300 | 3 | 1600 | 1 (≈ 2.23 µM) | 4 (≈ 8.92 µM) | 1 (≈ 2.23 µM) | 
3 | O=c1cc(CC(O)CCN2CCN(c3nccc4ccc(F)cc34)CC2)c2ccccc2o1 (racemic) | 8 (≈ 17.9 µM) | 2800 | 2500 | 1.7 | 800 | 4 (≈ 8.94 µM) | > 8 | 1 (≈ 2.23 µM) | 
4 | O=c1nc(NC[C@@H](O)CN2CCN(c3nccc4ccc(F)cc34)CC2)c2ccccc2o1 | 4 (≈ 8.9 µM) | 1500 | 400 | 0.3 | 600 | 1 (≈ 2.22 µM) | > 8 | 0.25 (≈ 0.556 µM) | 
5 | O=c1cc(NCCCN2CCN(c3nccc4ccccc34)CC2)c2cc(F)ccc2o1 | 0.5 (≈ 1.16 µM) | 1200 | 1300 | 3.1 | 3900 | 2 (≈ 4.62 µM) |  | 4 (≈ 9.25 µM) | 
6 | O=c1cc(NCC(O)CN2CCN(c3nccc4ncccc34)CC2)c2cc(F)ccc2o1 (racemic) | 2 (≈ 4.45 µM) | 150 | 200 | 0.3 | 1100 | 4 (≈ 8.9 µM) | 8 (≈ 17.8 µM) | 4 (≈ 8.9 µM) | 
7 | O=c1cc(NCCCN2CCN(c3nc(F)cc4ccccc34)CC2)c2ccccc2o1 | 4 (≈ 9.25 µM) | 900 | 1900 | 7.1 | 2600 | 2 (≈ 4.62 µM) | 4 (≈ 9.25 µM) | 4 (≈ 9.25 µM) | 
8 | O=C(NCCCN1CCN(c2nccc3ccccc23)CC1)c1ccccc1 | 256 (≈ 684 µM) | 112000 | 130000 | 489 | 20000 | 32 (≈ 85.5 µM) |  | 16 (≈ 42.7 µM) | 
9 | O=c1cc(NCCCN2CCN(c3nccc4ccc(Cl)cc34)CC2)c2ccccc2o1 | 2 (≈ 4.45 µM) | 900 | 2400 | 5.6 | 4500 | 2 (≈ 4.45 µM) | 8 (≈ 17.8 µM) | 4 (≈ 8.91 µM) | 
10 | O=c1cc(NCCCN2CCN(c3nccc4ccccc34)CC2)c2ccccc2o1 | 4 (≈ 9.65 µM) | 500 | 10000 | 90 | 14000 | > 32 | > 32 | > 32 | 
11 | O=c1cc(NC[C@H](O)CN2CCN(c3nccc4ccc(F)cc34)CC2)c2ccccc2o1 | 4 (≈ 8.92 µM) | 1800 | 1100 | 1.7 | 1500 | 0.5 (≈ 1.11 µM) | 8 (≈ 17.8 µM) | 1 (≈ 2.23 µM) | 
12 | CN[C@H](CC(C)C)C(=O)N[C@H]1C(=O)N[C@@H](CC(N)=O)C(=O)N[C@H]2C(=O)N[C@H]3C(=O)N[C@H](C(=O)N[C@H](C(=O)O)c4cc(O)cc(O)c4-c4cc3ccc4O)[C@H](O)c3ccc(c(Cl)c3)Oc3cc2cc(c3O[C@@H]2O[C@H](CO)[C@@H](O)[C@H](O)[C@H]2O[C@H]2C[C@](C)(N)[C@H](O)[C@H](C)O2)Oc2ccc(cc2Cl)[C@H]1O [VANCOMYCIN] |  |  |  |  |  |  |  |  | MIC (Klebsiella pneumoniae): > 8 µg/mL; MIC (Enterococcus faecium [8]): > 128 µg/mL; MIC (Haemophilus influenzae [9]): > 8 µg/mL; MIC (Enterococcus faecalis [10]): 2 µg/mL (≈ 1.38 µM); MIC (Enterococcus faecalis [11]): 1 µg/mL (≈ 0.69 µM); MIC (Enterococcus faecium [12]): > 128 µg/mL; MIC (Enterococcus faecalis [13]): 4 µg/mL (≈ 2.76 µM); MIC (Enterococcus faecalis [14]): 2 µg/mL (≈ 1.38 µM); MIC (Enterococcus faecalis [15]): > 128 µg/mL; MIC (Enterococcus faecium [16]): > 128 µg/mL; MIC (Enterococcus faecalis [17]): > 128 µg/mL; MIC (Enterococcus faecium [18]): > 128 µg/mL; MIC (Enterococcus faecium [19]): > 128 µg/mL; MIC (Haemophilus influenzae [20]): > 8000 ng/mL; MIC (Enterococcus faecium [21]): > 8 µg/mL
13 | O=c1ccc2ncc(=O)n3c2n1C[C@H]3CN1CCC(NCc2cc3c(cn2)OCCC3)CC1 [GEPOTIDACIN] |  |  |  |  |  |  |  |  | MIC90 (Staphylococcus aureus [22]): 0.5 µg/mL (≈ 1.11 µM); MIC90 (Escherichia coli [23]): 4 µg/mL (≈ 8.92 µM)
14 | COc1ccc2ccnc(N3CCN(CCCNc4cc(=O)oc5ccccc45)CC3)c2c1 | 4 (≈ 9 µM) | 3200 | 900 | 6.7 | 1100 | 1 (≈ 2.25 µM) | 8 (≈ 18 µM) | 2 (≈ 4.5 µM) | 
15 | N#Cc1ccc2ccnc(N3CCN(CCCNc4cc(=O)oc5ccccc45)CC3)c2c1 | 2 (≈ 4.55 µM) | 2300 | 1700 | 5.1 | 6800 | 4 (≈ 9.1 µM) | > 8 | 8 (≈ 18.2 µM) | 
16 | O=C(O)c1cn(C2CC2)c2cc(N3CCNCC3)c(F)cc2c1=O [CIPROFLOXACIN] |  |  |  |  |  | 4 to 64 (≈ 12.1 to 193 µM) |  | 0.25 to 0.5 (≈ 0.754 to 1.51 µM) | MIC (Neisseria gonorrhoeae): ≤ 0.06 µg/mL; MIC (Klebsiella pneumoniae): 0.125 µg/mL (≈ 0.377 µM); MIC (Enterococcus faecium [8]): 128 µg/mL (≈ 386 µM); MIC (Haemophilus influenzae [9]): 0.015 µg/mL (≈ 0.0453 µM); MIC (Staphylococcus aureus [24]): 0.25 µg/mL; MIC (Enterococcus faecalis [10]): 2 µg/mL (≈ 6.04 µM); MIC (Enterococcus faecalis [11]): 64 µg/mL (≈ 193 µM); MIC (Enterococcus faecium [12]): 16 µg/mL (≈ 48.3 µM); MIC (Enterococcus faecalis [13]): 1 µg/mL (≈ 3.02 µM); MIC (Enterococcus faecalis [14]): 2 µg/mL (≈ 6.04 µM); MIC (Enterococcus faecalis [15]): 64 µg/mL (≈ 193 µM); MIC (Staphylococcus aureus [25]): > 4 µg/mL; MIC (Enterococcus faecium [16]): 128 µg/mL (≈ 386 µM); MIC (Enterococcus faecalis [17]): 32 µg/mL (≈ 96.6 µM); MIC (Enterococcus faecium [18]): > 128 µg/mL; MIC (Enterococcus faecium [19]): 4 µg/mL (≈ 12.1 µM); MIC (Haemophilus influenzae [20]): 8 ng/mL (≈ 0.0241 µM); MIC (Enterococcus faecium [21]): > 32 µg/mL
